Experimental data published in BigSolDB 2.1.

With `Nc1ccc(Oc2ccc(N)cc2)cc1` as the compound, how does the solubility (mole fraction) (in 2-ethoxyethanol, 283.15 K) read?
The solubility (mole fraction) was 0.0274.

What about the solubility (mole fraction) (in 2-ethoxyethanol, 288.15 K) of the same compound?
The solubility (mole fraction) was 0.0288.

And the solubility (mole fraction) (in 2-ethoxyethanol, 293.15 K)?
Its solubility (mole fraction) is 0.0306.

What about the solubility (mole fraction) (in 2-ethoxyethanol, 298.15 K) of the same compound?
Its solubility (mole fraction) is 0.0329.

And the solubility (mole fraction) (in 2-ethoxyethanol, 303.15 K)?
The solubility (mole fraction) was 0.0358.

What about the solubility (mole fraction) (in 2-ethoxyethanol, 308.15 K) of the same compound?
Its solubility (mole fraction) is 0.0394.

What about the solubility (mole fraction) (in 2-ethoxyethanol, 313.15 K) of the same compound?
Its solubility (mole fraction) is 0.0436.

What about the solubility (mole fraction) (in 2-ethoxyethanol, 318.15 K) of the same compound?
The solubility (mole fraction) was 0.0486.

And the solubility (mole fraction) (in 2-ethoxyethanol, 323.15 K)?
Its solubility (mole fraction) is 0.0544.

And the solubility (mole fraction) (in DMAc, 283.15 K)?
The solubility (mole fraction) was 0.133.

What about the solubility (mole fraction) (in DMAc, 288.15 K) of the same compound?
Its solubility (mole fraction) is 0.136.

And the solubility (mole fraction) (in DMAc, 293.15 K)?
The solubility (mole fraction) was 0.139.

What about the solubility (mole fraction) (in DMAc, 298.15 K) of the same compound?
The solubility (mole fraction) was 0.143.

What about the solubility (mole fraction) (in DMAc, 303.15 K) of the same compound?
Its solubility (mole fraction) is 0.147.

And the solubility (mole fraction) (in DMAc, 308.15 K)?
The solubility (mole fraction) was 0.152.

What about the solubility (mole fraction) (in DMAc, 313.15 K) of the same compound?
Its solubility (mole fraction) is 0.156.

And the solubility (mole fraction) (in DMAc, 318.15 K)?
Its solubility (mole fraction) is 0.162.

And the solubility (mole fraction) (in DMAc, 323.15 K)?
The solubility (mole fraction) was 0.168.

What about the solubility (mole fraction) (in DMF, 283.15 K) of the same compound?
Its solubility (mole fraction) is 0.104.

What about the solubility (mole fraction) (in DMF, 288.15 K) of the same compound?
Its solubility (mole fraction) is 0.107.

And the solubility (mole fraction) (in DMF, 293.15 K)?
The solubility (mole fraction) was 0.11.

What about the solubility (mole fraction) (in DMF, 298.15 K) of the same compound?
Its solubility (mole fraction) is 0.115.

And the solubility (mole fraction) (in DMF, 303.15 K)?
Its solubility (mole fraction) is 0.12.

What about the solubility (mole fraction) (in DMF, 308.15 K) of the same compound?
The solubility (mole fraction) was 0.126.

And the solubility (mole fraction) (in DMF, 313.15 K)?
Its solubility (mole fraction) is 0.132.

And the solubility (mole fraction) (in DMF, 318.15 K)?
Its solubility (mole fraction) is 0.138.

What about the solubility (mole fraction) (in DMF, 323.15 K) of the same compound?
Its solubility (mole fraction) is 0.145.

What about the solubility (mole fraction) (in DMSO, 298.15 K) of the same compound?
Its solubility (mole fraction) is 0.153.

And the solubility (mole fraction) (in DMSO, 303.15 K)?
The solubility (mole fraction) was 0.159.

What about the solubility (mole fraction) (in DMSO, 308.15 K) of the same compound?
Its solubility (mole fraction) is 0.165.

And the solubility (mole fraction) (in DMSO, 313.15 K)?
Its solubility (mole fraction) is 0.172.

And the solubility (mole fraction) (in DMSO, 318.15 K)?
The solubility (mole fraction) was 0.179.

What about the solubility (mole fraction) (in DMSO, 323.15 K) of the same compound?
Its solubility (mole fraction) is 0.187.

What about the solubility (mole fraction) (in ethanol, 283.15 K) of the same compound?
The solubility (mole fraction) was 0.000434.

And the solubility (mole fraction) (in ethanol, 288.15 K)?
The solubility (mole fraction) was 0.000549.

And the solubility (mole fraction) (in ethanol, 293.15 K)?
Its solubility (mole fraction) is 0.0007.

And the solubility (mole fraction) (in ethanol, 298.15 K)?
The solubility (mole fraction) was 0.00089.

And the solubility (mole fraction) (in ethanol, 303.15 K)?
Its solubility (mole fraction) is 0.00113.

What about the solubility (mole fraction) (in ethanol, 308.15 K) of the same compound?
The solubility (mole fraction) was 0.00143.

And the solubility (mole fraction) (in ethanol, 313.15 K)?
The solubility (mole fraction) was 0.00176.

And the solubility (mole fraction) (in ethanol, 318.15 K)?
The solubility (mole fraction) was 0.00217.

What about the solubility (mole fraction) (in ethanol, 323.15 K) of the same compound?
Its solubility (mole fraction) is 0.0027.

What about the solubility (mole fraction) (in methanol, 283.15 K) of the same compound?
The solubility (mole fraction) was 0.00114.

What about the solubility (mole fraction) (in methanol, 288.15 K) of the same compound?
Its solubility (mole fraction) is 0.00132.

What about the solubility (mole fraction) (in methanol, 293.15 K) of the same compound?
Its solubility (mole fraction) is 0.00153.

What about the solubility (mole fraction) (in methanol, 298.15 K) of the same compound?
Its solubility (mole fraction) is 0.00178.

And the solubility (mole fraction) (in methanol, 303.15 K)?
The solubility (mole fraction) was 0.00208.

What about the solubility (mole fraction) (in methanol, 308.15 K) of the same compound?
The solubility (mole fraction) was 0.00246.

And the solubility (mole fraction) (in methanol, 313.15 K)?
The solubility (mole fraction) was 0.00293.

And the solubility (mole fraction) (in methanol, 318.15 K)?
The solubility (mole fraction) was 0.00349.

What about the solubility (mole fraction) (in methanol, 323.15 K) of the same compound?
The solubility (mole fraction) was 0.00416.
